# Test results from US6376488B1, “Benzoxazine α-1 adrenergic compounds” (Abbott Laboratories, priority 2000, dated 2002).
# Target: T1, α1d (rat) adrenoreceptor (Rattus norvegicus, UniProt P23944)
# T1 sequence (P23944 1-561): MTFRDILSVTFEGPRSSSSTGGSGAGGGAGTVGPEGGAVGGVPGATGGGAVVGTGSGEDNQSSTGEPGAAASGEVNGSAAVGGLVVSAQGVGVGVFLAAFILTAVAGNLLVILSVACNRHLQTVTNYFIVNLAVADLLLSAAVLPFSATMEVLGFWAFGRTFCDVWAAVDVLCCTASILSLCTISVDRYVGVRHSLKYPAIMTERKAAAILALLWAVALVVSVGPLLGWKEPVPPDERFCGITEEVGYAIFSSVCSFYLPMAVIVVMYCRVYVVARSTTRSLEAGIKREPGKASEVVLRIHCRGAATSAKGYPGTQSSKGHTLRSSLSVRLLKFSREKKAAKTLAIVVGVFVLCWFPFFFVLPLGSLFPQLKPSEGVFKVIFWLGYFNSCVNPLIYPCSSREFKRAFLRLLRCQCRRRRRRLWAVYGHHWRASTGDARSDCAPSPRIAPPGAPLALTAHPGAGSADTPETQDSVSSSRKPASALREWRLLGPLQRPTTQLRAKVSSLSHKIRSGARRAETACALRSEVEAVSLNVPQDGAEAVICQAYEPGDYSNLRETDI
# Test: [3H]-prazosin radioligand binding, cloned α1d (rat) adrenoreceptor in LTK cells
# Conditions: cloned receptor in LTK cell membranes, [3H]prazosin 0.2 nM
# Description: Representative compounds of the invention were evaluated for α adrenoreceptor binding affinity in vitro using [^3H]-prazosin as the radioligand and following four cloned α1, adrenoreceptors expressed in LTK cells: α1a (rat), α1a (bovine), α1b : (hampster), and α1d (rat).
# The cDNA clones encoding the α1, adrenoreceptors were obtained from TULCO (Triangle Universities Licensing Consortium, Research Triangle Park, N.C.) and inserted into the eukaryotic expression vector SnaB30. In this vector, expression of the adrenoreceptor gene is under the transcriptional control of an SV40 early promoter. Positive drug selection is provided by a neomycin-resistance gene. Mouse fibroblast cells (LTK) were transfected with the α1 expression plasmids and grown in Dulbecco's modified Eagle's medium (DMEM) containing 10% fetal calf serum and 30 μM G418. Stable G418-resistant parental lines were generated with successful expression of adrenoreceptor protein monitored using radioligand binding techniques. Stable single cell clones derived from the parental lines were screened in adrenoreceptor binding assays to identify clones having high adrenoreceptor density. Roller bottle cultures of the cloned lines were used to provide cell membranes for subsequent adrenoreceptor binding characterization studies. A cell line containing the SnaB30 vector expressing the human erythropoietin gene served as a negative control.
# For adrenoreceptor binding assays, large scale membrane preparations were utilized in which 6 million cells were seeded into small (450 cm^2) Coming tissue culture roller bottles. DMEM (200 mL) containing 10% fetal calf serum and 300 μM G418 were added to each roller bottle. A 95% air/5% CO2 gas mixture (sterile) was injected into each roller bottle prior to sealing, and the bottles were then incubated at 37° C. on a roller rack for 5 days. Cells were refed with fresh medium after 3 days in culture.
# On the fifth day of culture, growth medium was removed from cells grown in roller bottles, and the cells were washed twice with PBS (Sigma, 120 mM NaCl, 2.7 mM KCl, 10 mM Na2HPO4-NaH2PO4, pH=7.4). Cells were detached from the roller bottles by incubating for 15 minutes at 37° C. in a Tris-EDTA solution (10 mM Tris, 100 mM NaCl, 1 mM EDTA, pH=7.4). The cell suspension from each roller bottle was decanted into tared centrifuge tubes and kept on ice. An aliquot of each cell suspension was generally taken for cell counting. Cells were centrifuged at 3000×G for 5 minutes at 2-4° C., washed with PBS and recentrifuged. The supernatant was decanted, and the pellet was weighed to determine the wet weight of cells. Cells were washed a final time in 40 vol 5 mM Tris-HCl, 5 mM EDTA, pH=7.7 and centrifuged at 40,000×G for 10 minutes (“vol” indicates volume/weight, e.g., a “vol” of 40 would indicate that the one gram of cells were washed with 40 mls of buffer). Cells were homogenized in of 50 mM Tris-HCl, 5 mM EDTA (pH=7.4) (10 mL) and diluted to 40 mL/tube. Homogenates were centrifuged at 40,000×G for 10 minutes. The supernatant was decanted and the pellets rehomogenized in 50 mM Tris-HCl (pH=7.4) and centrifuged as before. The supernatant was decanted and the homogenate was resuspended in 6.25 volumes (per gram wet weight) of 50 mM Tris-HCl and aliquots of the pooled homogenates frozen in liquid N2 and,stored at −70° C. until the time of assay.
# Receptor binding assays for α1 adrenoreceptors were performed essentially as described by Greengrass and Bremner (Eur. J. Pharmacol. 55: 323-326 (1979)). […] Following equilibration, bound radioligand was separated from free on GF/B filters (presoaked in 0.5% polyethyleneimine) using ither a Brandel or Packard cell harvester. Radioactivity was determined by standard liquid scintillation techniques. Data were analyzed as previously described (Hancock, A. A., Kyncl, J. J., Martin, Y. C. and DeBemardis, J. F., J. Receptor Res. 8: 23-46 (1988)). The in Table 1.
substance,measurement,value
"(−) 3-[3-(10-methoxy-1,2,4a,5-tetrahydropyrazino[2,1-c][1,4]benzoxazin-3(4H)-yl)butyl]pyrido[2′,3′:4,5]thieno[3,2-d]pyrimidine-2,4(1H,3H)-dione trihydrochloride [Example 10]",Ki,0.344 nM
